Assay [1] deals with NMDA receptors. As to the kind of experiment: Cortical slice studies, responses to NMDA in rat cortical slice. The class given is cell-based. Conditions: from righthand shift in NMDA concentration-response curves, read-out: apparent equilibrium constant (Kb) in response to NMDA. The text has this: (§1) The compounds useful in this invention potently and selectively block responses to NMDA and/or AMPA in a brain slice from rat cortex, and inhibit the binding of agonists and antagonists to the strychnine-insensitive site present on the NMDA receptor and/or AMPA binding to rat forebrain membranes.
The effects of compounds of the invention on responses to NMDA and AMPA can be assessed using the rat cortical slice as described by Wong et al., Proc. Natl. Acad. Sci. USA, 1986, 83, 7104. The apparent equilibrium constant (Kb) is calculated from the righthand shift in the NMDA or AMPA concentration-response curves produced by the compound under test.

Assay [2] concerns the target T1, strychnine-insensitive site present on the NMDA receptor (Rattus norvegicus, UniProt P35439).
T1 construct: NMDA receptor of rat forebrain membranes; from tissue; host or cells: rat forebrain membranes
The assay can be described thus: Displacement of 3H-L-689,560 binding to the strychnine-insensitive site of rat forebrain membranes. The conditions noted are these: 3H-L-689,560, rat forebrain membranes; read-out: concentration required to displace 50% of the specific binding (IC50).
Excerpt: as §1
The ability of test compounds to displace ^3 H-L-689,560 (trans-2-carboxy-5,7-dichloro-4-phenylaminocarbonylamino-1,2,3,4-tetrahydroquinoline) binding to the strychnine-insensitive site present on the NMDA receptor of rat forebrain membranes can be determined by the method of Grimwood et al., Proceedings of The British Pharmacological Society, July 1991, Abstract C78.

Turning to `O=c1[nH]n2cccc2c(O)c1-c1ccccc1` [Example 1, 4-Hydroxy-3-phenylpyrrolo[1,2-b]pyridazin-2(1H)-one], the Kb in assay [1] is under 150 µM. Also, the IC50 in assay [2] is under 50 µM.

Values taken from US5426106A, “Pyrrolo-pyridazinone derivatives” (Merck Sharp & Dohme Limited, priority 1992, dated 1995).
